Measured values published in US11980774B2, “Illumination devices and related methods for phototherapeutic light treatments in the presence of vitamins” (priority 2021, dated 2024).

System: New York variant of SARS-CoV-2 (SARS-CoV-2 NY)
Assay: 425 nm light inhibition of SARS-CoV-2 NY in the presence of riboflavin in artificial saliva, virus titer
Assay type: cell-based
Settings: FIG. 2

With `Cc1cc2nc3c(=O)[nH]c(=O)nc-3n(C[C@H](O)[C@H](O)[C@H](O)CO)c2cc1C` [riboflavin] the “change in SARS-CoV-2 NY viral load compared with the 0 μM RFN sample” value (10 μM RFN in artificial saliva, 425 nm light, beginning with doses as low as 3 J/cm^2) was “notable decreases” and the “viral load of SARS-CoV-2 NY after treatment” value (10 μM RFN, 425 nm light 15 J/cm^2) was “below measurement background levels”.
